This passage reports IC50 results from patent publication US10710986B2, “PD-1/PD-L1 inhibitors” (Gilead Sciences, Inc., priority 2018, dated 2020).

The structures appear in SMILES notation.

Chain of PD-1/PD-L1 (Q9NZQ7 19-238): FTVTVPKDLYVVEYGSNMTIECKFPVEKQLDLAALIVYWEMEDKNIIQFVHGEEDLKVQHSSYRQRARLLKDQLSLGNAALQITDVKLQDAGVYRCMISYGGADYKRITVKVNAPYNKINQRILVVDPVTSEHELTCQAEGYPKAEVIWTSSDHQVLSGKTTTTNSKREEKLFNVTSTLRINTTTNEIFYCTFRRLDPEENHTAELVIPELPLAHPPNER

This assay has as its target PD-1/PD-L1 (Homo sapiens (Human), UniProt Q9NZQ7). Kind of assay: PD-1/PD-L1 biochemical protein-protein interaction assay (ALPHA). Conditions: 0.3 nM His tagged PD-L1, 2.5 nM biotinylated Fc-PD-1, 60 minutes at 25° C., read-out: IC50 PD-L1-PD1.
Consider `COc1nc(-c2cccc(-c3cccc(-c4cnc(CN[C@@H]5CCC(C(N)=O)C5)c(OC)n4)c3Cl)c2Cl)cnc1CNC[C@@H]1CCC(=O)N1` (stereo partly drawn) [compound 473], for which the IC50 is 0.093 nM.

`COc1nc(-c2cccc(-c3cccc(-c4cnc(CNC[C@@H]5CCC(=O)N5)c(OC)n4)c3Br)c2Br)cnc1CNC[C@@H]1CCC(=O)N1` [compound 113]: the IC50 is 0.211 nM.

For `COc1nc(-c2cccc(-c3cccc(-c4cnc(CN5CC(NS(C)(=O)=O)C5)c(OC)n4)c3Cl)c2Cl)cnc1CN1CC(NS(C)(=O)=O)C1` [compound 556], the IC50 stood at 0.176 nM.

`COc1nc(-c2cccc(-c3cccc(-c4cnc(CNC[C@@H]5CCC(=O)N5)c(OC)n4)c3Cl)c2Cl)cnc1CNCCN1CCNC1=O` [compound 211]: the IC50 was found to be 0.095 nM.

On to `CNc1nc(-c2cccc(-c3cccc(-c4cnc(CN5CC6(CCC(=O)N6)C5)c(NC)n4)c3Cl)c2Cl)cnc1CN1CC2(CCC(=O)N2)C1` [compound 79], for which the IC50 worked out at 0.292 nM.

Turning to `COc1nc(-c2cccc(-c3cccc(-c4cnc5c(CN6CC7(CNC(=O)C7)C6)cn(C)c5n4)c3Cl)c2Cl)cnc1CNC[C@H]1CCC(=O)N1` [compound 605], the half-maximal inhibitory concentration (IC50) was found to be 0.113 nM.

In the case of `COc1nc(-c2cccc(-c3cccc(-c4cnc(CN5CCCC(C(F)F)C5)c(OC)n4)c3Cl)c2Cl)cnc1CNC[C@@H]1CCC(=O)N1` (stereo partly drawn) [compound 272], the IC50 is 2.43 nM.

For the compound `COc1nc(-c2cccc(-c3cccc(-c4cc(C)c(CN5CC(C(=O)O)C6(CCOC6)C5)c(OC)n4)c3Cl)c2Cl)cnc1CNC[C@@H]1CCC(=O)N1` (stereo partly drawn) [compound 654], the IC50 was 0.071 nM.

For the compound `COc1nc(-c2cccc(-c3cccc(-c4cnc(CN5CC(C)(CO)C5)c(OC)n4)c3Cl)c2Cl)cnc1CN1CC(C)(CO)C1` [compound 148], the IC50 was determined as 0.06 nM.

Take `COc1nc(-c2cccc(-c3cccc(-c4cnc(CNCC5(O)CCC5)c(OC)n4)c3Cl)c2Cl)cnc1CNC[C@@H]1CCC(=O)N1` [compound 486]: the half-inhibitory concentration (IC50) turned out to be 0.29 nM.

`COc1nc(-c2cccc(-c3cccc(-c4cnc(CNC[C@@H]5CCC(=O)N5)c(OC)n4)c3Cl)c2Cl)cnc1CNCCNC(C)=O` [compound 373]: the IC50 came to 0.13 nM.

Consider `COc1nc(-c2cccc(-c3cccc(-c4cnc(CN5CCNC(=O)C5)c(OC)n4)c3Cl)c2Cl)cnc1CNC[C@@H]1CCC(=O)N1` [compound 41], for which the 50% inhibitory concentration (IC50) turned out to be 0.083 nM.

On to `COc1nc(-c2cccc(-c3cccc(-c4cnc(CN5CC(C(C)(C)O)C5)c(OC)n4)c3Cl)c2Cl)cnc1CNC[C@@H]1CCC(=O)N1` [compound 484], for which the IC50 worked out at 0.122 nM.

Consider `COc1nc(-c2cccc(-c3cccc(-c4cnc(CNC[C@@H]5CC(C)(C)C(=O)N5)c(OC)n4)c3Cl)c2Cl)cnc1CNC[C@@H]1CCC(=O)N1` [compound 245], for which the IC50 was determined as 0.15 nM.

As to `COc1nc(-c2cccc(-c3cccc(-c4cnc(CN5CC[C@H](C(=O)O)C5)c(OC)n4)c3Cl)c2Cl)cnc1CN` [compound 585], the IC50 was found to be 0.442 nM.

For `COc1nc(-c2cccc(-c3cccc(-c4cnc(CNC[C@@H]5CC6(CC6)C(=O)N5)c(OC)n4)c3Cl)c2Cl)cnc1CNC[C@@H]1CC2(CC2)C(=O)N1` [compound 331], the 50% inhibitory concentration (IC50) came out at 0.669 nM.

On to `CNc1nc(-c2cccc(-c3cccc(-c4cnc(CNC[C@@H]5CCC(=O)N5)c(OC)n4)c3Cl)c2Cl)cnc1CNC[C@@H]1CCC(=O)N1` [compound 63], for which the IC50 was 2.99 nM.

`COc1nc(-c2cccc(-c3cccc(-c4cnc(CN5CC(O)C5)c(OC)n4)c3Cl)c2Cl)ccc1CN1CC(O)C1` [compound 439]: the IC50 was determined as 0.646 nM.

In the case of `CC[C@@H]1OCC[C@H]1NCc1ncc(-c2cccc(-c3cccc(-c4cnc(CNC[C@@H]5CCC(=O)N5)c(OC)n4)c3Cl)c2Cl)nc1OC` [compound 226], the half-maximal inhibitory concentration (IC50) was found to be 0.474 nM.

For the compound `COc1nc(-c2cccc(-c3cccc(-c4cnc(CNC[C@@H]5CCC(=O)N5)c(OC)n4)c3Cl)c2Cl)cnc1CNCC[C@H]1CCC(=O)N1` [compound 314], the concentration for half-maximal inhibition (IC50) worked out at 0.142 nM.

Consider `COc1nc(-c2cccc(-c3cccc(-c4cnc(CNC[C@@H]5C[C@H]5c5cccnc5)c(OC)n4)c3Cl)c2Cl)cnc1CNC[C@@H]1CCC(=O)N1` [compound 219], for which the IC50 is 0.19 nM.

Take `COc1nc(-c2cccc(-c3cccc(-c4cnc(CNC[C@@H]5CCC(=O)N5)c(OC)n4)c3Cl)c2Cl)ccc1CN1CC(CO)C1` [compound 157]: the IC50 was 0.064 nM.

`COc1nc(-c2cccc(-c3cccc(-c4cnc(CN5CC6(CCC(=O)N6)C5)c(OC5CC5)n4)c3Cl)c2Cl)ccc1CN1CC2(CCC(=O)N2)C1` [compound 636]: the IC50 is 0.12 nM.

As for `COc1nc(-c2cccc(-c3cccc(-c4cnc(CN5CC6(CNC(=O)C6)C5)c(OC)n4)c3Cl)c2Cl)cnc1CN1CC2(CNC(=O)C2)C1` [compound 120], the IC50 was 0.32 nM.

`COc1nc(-c2cccc(-c3cccc(-c4cnc(CNC5CCc6cn[nH]c6C5)c(OC)n4)c3Cl)c2Cl)cnc1CNC[C@@H]1CCC(=O)N1` (stereo partly drawn) [compound 212]: the IC50 was 0.48 nM.

Regarding `COc1nc(-c2cccc(-c3cccc(-c4cnc(CNC[C@@H](C)O)c(OC)n4)c3Cl)c2Cl)cnc1CNC[C@@H]1CCC(=O)N1` [compound 345], the IC50 amounted to 0.313 nM.

As for `COc1nc(-c2cccc(-c3cccc(-c4cnc(CN[C@H](C5CC5)[C@@H]5CCC(=O)N5)c(OC)n4)c3Cl)c2Cl)cnc1CN[C@H](C1CC1)[C@@H]1CCC(=O)N1` [compound 590], the IC50 is 0.131 nM.

With `CNc1nc(-c2cccc(-c3cccc(-c4cnc(CN5CC(F)C5)c(NC)n4)c3Cl)c2Cl)cnc1CN1CC(F)C1` [compound 69], the IC50 came out at 2.62 nM.

Turning to `COc1nc(-c2cccc(-c3cccc(-c4cnc(CN5CCC6(CCC(=O)N6)C5)c(OC)n4)c3Cl)c2Cl)cnc1CNC[C@H]1CCC(=O)N1` (stereo partly drawn) [compound 197], the half-inhibitory concentration (IC50) came out at 0.23 nM.

As for `COc1nc(-c2cccc(-c3cccc(-c4cnc(CN5CC(C)(C#N)C5)c(OC)n4)c3Cl)c2Cl)cnc1CNC[C@@H]1CCC(=O)N1` [compound 9], the IC50 turned out to be 0.49 nM.

As to `COc1nc(-c2cccc(-c3cccc(-c4cnc(CN5CC[C@@H](CO)[C@@H](O)C5)c(OC)n4)c3Cl)c2Cl)cnc1CNC[C@@H]1CCC(=O)N1` [compound 300], the IC50 was determined as 0.299 nM.

For `COC[C@@H]1C[C@H](OC)CN1Cc1ncc(-c2cccc(-c3cccc(-c4cnc(CNC[C@@H]5CCC(=O)N5)c(OC)n4)c3Cl)c2Cl)nc1OC` [compound 530], the IC50 is 0.212 nM.

Consider `COc1nc(-c2cccc(-c3cccc(-c4cnc(CNC[C@@H]5CCC(=O)N5)c(OC)n4)c3Cl)c2Cl)cnc1CNCCO` [compound 374], for which the IC50 worked out at 0.183 nM.

On to `COc1nc(-c2cccc(-c3cccc(-c4cnc(CNC[C@@H]5CCC(=O)N5)c(OC)n4)c3Cl)c2Cl)cnc1CNC[C@@H]1CNC(=O)C1` [compound 435], for which the half-maximal inhibitory concentration (IC50) is 0.064 nM.

With `COc1nc(-c2cccc(-c3cccc(-c4cnc(CNCc5cnn(CCO)c5)c(OC)n4)c3Cl)c2Cl)cnc1CNCc1cnn(CCO)c1` [compound 455], the IC50 was found to be 0.145 nM.

On to `COc1nc(-c2cccc(-c3cccc(-c4cnc(CN5CC(N6CC(O)C6)C5)c(OC)n4)c3Cl)c2Cl)cnc1CNC[C@@H]1CCC(=O)N1` [compound 348], for which the IC50 stood at 0.138 nM.

As for `CNc1nc(-c2cccc(-c3cccc(-c4cnc(CN5CC(OC)C5)c(NC)n4)c3Cl)c2Cl)cnc1CN1CC(OC)C1` [compound 75], the IC50 worked out at 0.877 nM.

In the case of `COc1nc(-c2cccc(-c3cccc(-c4cnc(CNC[C@@H]5CCC(=O)N5)c(OC)n4)c3Cl)c2Cl)cnc1CNCCCS(N)(=O)=O` [compound 577], the IC50 was 0.064 nM.

In the case of `COc1nc(-c2cccc(-c3cccc(-c4cnc(CNC[C@@H]5CCC(=O)N5)c(OC)n4)c3Cl)c2Cl)cnc1CNCC1CC1CC#N` (stereo partly drawn) [compound 220], the IC50 was 0.36 nM.

`COc1nc(-c2cccc(-c3cccc(-c4cnc(CN[C@@H](CO)C(N)=O)c(OC)n4)c3Cl)c2Cl)cnc1CNC[C@@H]1CCC(=O)N1` [compound 304]: the IC50 came to 0.29 nM.

As to `CCc1nc(-c2cccc(-c3cccc(-c4cnc(CNC[C@@H]5CCC(=O)N5)c(CC)n4)c3Cl)c2Cl)cnc1CNC[C@@H]1CCC(=O)N1` [compound 85], the IC50 came to 0.976 nM.

Take `COc1nc(-c2cccc(-c3cccc(-c4cnc(CN5CC6(CCC(=O)N6)C5)c(OC)n4)c3Br)c2F)cnc1CN1CC2(CCC(=O)N2)C1` [compound 394]: the IC50 is 1.78 nM.

Regarding `COc1nc(-c2cccc(-c3cccc(-c4cnc(CNC56CC(OC)(C5)C6)c(OC)n4)c3Cl)c2Cl)cnc1CNC[C@@H]1CCC(=O)N1` [compound 8], the IC50 came out at 0.59 nM.

As for `COc1nc(-c2cccc(-c3cccc(-c4cnc(CN[C@H]5C[C@@H](C(N)=O)C5)c(OC)n4)c3Cl)c2Cl)cnc1CNC[C@@H]1CCC(=O)N1` [compound 464], the IC50 was 0.11 nM.

`COc1nc(-c2cccc(-c3cccc(-c4cnc(CNC[C@H]5C[C@@](C)(O)C5)c(OC)n4)c3Cl)c2Cl)cnc1CNC[C@H]1C[C@@](C)(O)C1` [compound 562]: the IC50 is 0.151 nM.

On to `COc1nc(-c2cccc(-c3cccc(-c4cnc(CNC(C)(C)C(F)F)c(OC)n4)c3Cl)c2Cl)cnc1CNC[C@@H]1CCC(=O)N1` [compound 181], for which the IC50 was 1.51 nM.

On to `COc1nc(-c2cccc(-c3cccc(-c4cnc(CNC[C@@H]5CCC(=O)N5)c(OC)n4)c3Cl)c2Cl)ccc1CNC[C@@H]1CCC(=O)N1` [compound 126, (S)-5-((((6-(2,2′-dichloro-3′-(6-methoxy-5-(((((S)-5-oxopyrrolidin-2-yl)methyl)amino)methyl)pyrazin-2-yl)-[1,1′-biphenyl]-3-yl)-2-methoxypyridin-3-yl)methyl)amino)methyl)pyrrolidin-2-one], for which the IC50 is 0.272 nM.

Take `Cc1nc(-c2cccc(-c3cccc(-c4cnc(CN5CC6(CCC(=O)N6)C5)c(C)n4)c3Cl)c2Cl)cnc1CN1CC2(CCC(=O)N2)C1` [compound 95]: the IC50 is 0.233 nM.

`COc1nc(-c2cccc(-c3cccc(-c4cnc(CN5CC6(C5)CN(C(C)=O)C6)c(OC)n4)c3Cl)c2Cl)cnc1CN1CC2(C1)CN(C(C)=O)C2` [compound 209]: the IC50 was found to be 0.175 nM.

For the compound `COc1nc(-c2cccc(-c3cccc(-c4cnc(CN5CC6CC5(CO)C6)c(OC)n4)c3Cl)c2Cl)cnc1CN1CC2CC1(CO)C2` [compound 477], the IC50 stood at 0.246 nM.

As to `CNC(=O)C1CCN(Cc2ncc(-c3cccc(-c4cccc(-c5cnc(CNC[C@@H]6CCC(=O)N6)c(OC)n5)c4Cl)c3Cl)nc2OC)C1` (stereo partly drawn) [compound 472], the IC50 came to 0.066 nM.
